Measured values published in ChEMBL document CHEMBL1142267, “Optimization of alpha-ketooxazole inhibitors of fatty acid amide hydrolase” (J Med Chem, 2008).

Biological target: T1, Fatty-acid amide hydrolase 1 (Rattus norvegicus, UniProt P97612)
T1 sequence (P97612 whole entry): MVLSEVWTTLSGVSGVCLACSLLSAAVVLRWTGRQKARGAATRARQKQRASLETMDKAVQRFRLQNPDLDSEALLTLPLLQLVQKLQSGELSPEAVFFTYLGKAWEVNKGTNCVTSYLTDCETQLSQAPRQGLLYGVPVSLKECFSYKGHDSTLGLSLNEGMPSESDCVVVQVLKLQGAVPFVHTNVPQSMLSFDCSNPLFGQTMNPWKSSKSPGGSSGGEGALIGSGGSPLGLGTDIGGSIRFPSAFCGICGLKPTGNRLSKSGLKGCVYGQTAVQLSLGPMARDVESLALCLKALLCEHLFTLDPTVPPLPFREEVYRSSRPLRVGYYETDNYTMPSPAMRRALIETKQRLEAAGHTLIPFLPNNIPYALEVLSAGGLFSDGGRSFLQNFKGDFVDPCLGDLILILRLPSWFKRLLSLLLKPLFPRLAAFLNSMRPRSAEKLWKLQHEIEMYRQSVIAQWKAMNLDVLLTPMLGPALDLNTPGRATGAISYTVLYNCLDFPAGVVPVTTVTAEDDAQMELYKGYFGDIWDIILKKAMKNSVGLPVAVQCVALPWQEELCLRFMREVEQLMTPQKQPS
Assay: Inhibition of rat recombinant FAAH expressed in Escherichia coli

| Ki | IC50 | SMILES |
| --- | --- | --- |
| 32 nM |  | COC(=O)c1cccc(-c2cnc(C(=O)CCc3ccc(OC4CCN(C(=O)OC(C)(C)C)CC4)cc3)o2)n1 |
| 50000 nM |  | COC(=O)c1ccc(-c2cnc(CCCc3ccc(-c4ccccc4)cc3)o2)nc1 |
| 1.3 nM |  | NC(=O)c1ccc(-c2cnc(C(=O)CCc3ccc(-c4ccccc4)cc3)o2)nc1 |
| 5.4 nM |  | CN(C)C(=O)c1cnc(C(=O)CCc2ccc(Oc3ccccc3)cc2)o1 |
| 1200 nM |  | CN1CCN(Cc2ccc(-c3ccc(CCC(=O)c4ncc(-c5cccc(C(=O)O)n5)o4)cc3)cc2)CC1 |
| 11 nM |  | CNC(=O)c1cnc(C(=O)CCc2ccc(Oc3ccccc3)cc2)o1 |
| 4 nM |  | O=C(CCc1ccc(-c2ccccc2)cc1)c1ncc(I)o1 |
| 20000 nM |  | NC(=O)c1cccc(-c2cnc(C(O)CCc3ccc(-c4ccccc4)cc3)o2)n1 (configuration not stated) |
| 3.5 nM |  | NC(=O)c1cnc(C(=O)CCc2ccc(-c3ccccc3)cc2)o1 |
| 4.5 nM |  | NC(=O)c1cnc(C(=O)CCc2ccc(COc3ccccc3)cc2)o1 |
| 1.5 nM |  | COC(=O)c1cc(-c2cnc(C(=O)CCc3ccc(-c4ccccc4)cc3)o2)ccn1 |
| 1.7 nM |  | COC(=O)c1cnc(C(=O)CCc2ccc(Oc3ccccc3)cc2)o1 |
| 1100 nM |  | COC(=O)c1ccc(-c2cnc(C(O)CCc3ccc(-c4ccccc4)cc3)o2)nc1 (configuration not stated) |
| 130 nM |  | O=C(O)c1cccc(-c2cnc(C(=O)CCc3ccc(-c4ccc(CN5CCCC5)cc4)cc3)o2)n1 |
|  | 2500 nM | O=C(CCCCCCc1ccccc1)c1ncco1 |
| 7000 nM |  | COC(=O)c1cccc(-c2cnc(CCCc3ccc(-c4ccccc4)cc3)o2)n1 |
| 30000 nM |  | NC(=O)c1ccc(-c2cnc(CCCc3ccc(-c4ccccc4)cc3)o2)nc1 |
| 3 nM |  | CSc1cnc(C(=O)CCc2ccc(-c3ccccc3)cc2)o1 |
| 4500 nM |  | COC(=O)c1cccc(-c2cnc(C(=O)CCc3ccc(OC4CCNCC4)cc3)o2)n1 |
| 1100 nM |  | O=C(O)c1cccc(-c2cnc(C(O)CCc3ccc(-c4ccccc4)cc3)o2)n1 (configuration not stated) |
| 20000 nM |  | O=C(O)c1ccc(-c2cnc(CCCc3ccc(-c4ccccc4)cc3)o2)nc1 |

| Ki | IC50 | SMILES |
| --- | --- | --- |
| 1.2 nM |  | CS(=O)(=O)c1cnc(C(=O)CCc2ccc(-c3ccccc3)cc2)o1 |
| 3.6 nM |  | CNC(=O)c1cnc(C(=O)CCc2ccc(COc3ccccc3)cc2)o1 |
| 6.7 nM |  | CN(C)C(=O)c1cnc(C(=O)CCc2ccc(COc3ccccc3)cc2)o1 |
| 3 nM |  | CN(C)C(=O)c1cnc(C(=O)CCc2ccc(-c3ccccc3)cc2)o1 |
| 10 nM |  | O=C(CCc1ccc(Oc2ccccc2)cc1)c1ncc(I)o1 |
| 4000 nM |  | NC(=O)c1cccc(-c2cnc(CCCc3ccc(-c4ccccc4)cc3)o2)n1 |
| 1.6 nM |  | COC(=O)c1cnc(C(=O)CCc2ccc(COc3ccccc3)cc2)o1 |
| 0.7 nM |  | O=C(CCc1ccc(-c2ccccc2)cc1)c1ncc(C(F)(F)F)o1 |
| > 1000 nM |  | NC(=O)c1ccc(-c2cnc(C(O)CCc3ccc(-c4ccccc4)cc3)o2)nc1 (configuration not stated) |
| 120 nM |  | CC(C)(C)OC(=O)N1CCC(Oc2ccc(CCC(=O)c3ncc(-c4cccc(C(=O)O)n4)o3)cc2)CC1 |
| 10000 nM |  | O=C(O)c1cccc(-c2cnc(CCCc3ccc(-c4ccccc4)cc3)o2)n1 |
| 11000 nM |  | O=C(O)c1cccc(-c2cnc(C(=O)CCc3ccc(OC4CCNCC4)cc3)o2)n1 |
| 25 nM |  | O=C(CCc1ccc(-c2ccc(CN3CCCCC3)cc2)cc1)c1ncco1 |
| 6.6 nM |  | NC(=O)c1cnc(C(=O)CCc2ccc(Oc3ccccc3)cc2)o1 |
| 10000 nM |  | O=C(O)c1ccc(-c2cnc(C(O)CCc3ccc(-c4ccccc4)cc3)o2)nc1 (configuration not stated) |
| 8 nM |  | O=C(CCc1ccc(-c2ccccc2)cc1)c1ncc(C(=O)C(F)(F)F)o1 |
| 9000 nM |  | COC(=O)c1cccc(-c2cnc(C(O)CCc3ccc(-c4ccccc4)cc3)o2)n1 (configuration not stated) |
| 2.9 nM |  | N#Cc1cccc(-c2cnc(C(=O)CCc3ccc(-c4ccccc4)cc3)o2)n1 |
| 1.5 nM |  | COC(=O)c1cnc(C(=O)CCc2ccc(-c3ccccc3)cc2)o1 |
| 4 nM |  | O=C(CCc1ccc(COc2ccccc2)cc1)c1ncc(I)o1 |
| 0.56 nM |  | N#Cc1cccc(-c2cnc(C(=O)CCc3ccc(COc4ccccc4)cc3)o2)n1 |
